The source made the active and inactive calls. The calls are words filed in the database; no cut-off is given here.
What was measured:
[1] = target: Ephrin type-A receptor 5 (Homo sapiens) (UniProt P54756); assay: Inhibition of recombinant human GST-tagged EPHA5 (595-1037 residues) expressed in insect cells at 2 uM using Tyr 01 as substrate measured after 1 hr by Z'-LYTE assay relative to control; conditions: Insect cell
[2] = target: Serine/threonine-protein kinase BRSK1 (Homo sapiens) (UniProt Q8TDC3); assay: Inhibition of recombinant human full-length GST tagged BRSK1 expressed in baculovirus expression system at 2 uM using Ser/Thr 21 as substrate measured after 1 hr by Z'-LYTE assay relative to control
[3] = target: Fibroblast growth factor receptor 1 (Homo sapiens) (UniProt P11362); assay: Inhibition of recombinant human His-tagged FGFR1 (308-731 residues) expressed in baculovirus expression system at 2 uM using Tyr 04 as substrate measured after 1 hr by Z'-LYTE assay relative to control
[4] = target: Tyrosine-protein kinase SYK (Homo sapiens) (UniProt P43405); assay: Inhibition of recombinant human full length GST-tagged SYK expressed in baculovirus expression system at 2 uM using […] as substrate measured after 1 hr by Z'-LYTE assay relative to control
[5] = test system: 786-0; assay: Antitumor activity against VHL null-human 786-0 cells xenografted in female nude mouse model assessed as suppression in tumor growth at 25 mg/kg, po qd administered as 5 days on/2 days off regimen for 4 cycles relative to control; type: functional; conditions: time 28 day
[6] = target: Cytoplasmic tyrosine-protein kinase BMX (Homo sapiens) (UniProt P51813); assay: Inhibition of recombinant human full-length His-tagged BMX expressed in insect cells at 2 uM using Tyr 01 as substrate measured after 1 hr by Z'-LYTE assay relative to control; conditions: Insect cell
[7] = test system: MDA-MB-361; assay: Induction of apoptosis in human MDA-MB-361 cells assessed as induction in cell death at 10 nmol/L incubated for 48 hrs by FACS analysis relative to control; type: functional
[8] = test system: PC3MM2; assay: Induction of apoptosis in human PC3MM2 cells assessed as increase in G1 phase at 1 micromol/L incubated for 24 hrs by FACS analysis; type: functional, cell-based; conditions: dose 1.0 µmol/L
[9] = target: Tyrosine-protein kinase JAK2 (Homo sapiens) (UniProt O60674); assay: Inhibition of recombinant human GST-tagged JAK2 JH1 JH2 domains (532-1132 residues) expressed in insect cells at 2 uM using Tyr 06 as substrate measured after 1 hr by Z'-LYTE assay relative to control; conditions: Insect cell
[10] = target: Casein kinase I isoform delta (Homo sapiens) (UniProt P48730); assay: Inhibition of recombinant human full-length GST-tagged CSNK1D expressed in insect cells at 2 uM using Ser/Thr 11 as substrate measured after 1 hr by Z'-LYTE assay relative to control; conditions: Insect cell
[11] = target: Ephrin type-A receptor 2 (Homo sapiens) (UniProt P29317); assay: Inhibition of recombinant human GST-tagged EPHA2 (568-976 residues) expressed in insect cells at 2 uM using Tyr 01 as substrate measured after 1 hr by Z'-LYTE assay relative to control; conditions: Insect cell
[12] = test system: Tyrosine-protein kinase ABL1 (Homo sapiens), P00519 [Y253F]; assay: Inhibition of recombinant human full-length His-tagged ABL1 Y253F mutant expressed in insect cells at 2 uM using Tyr 02 as substrate measured after 1 hr by Z'-LYTE assay relative to control; conditions: Insect cell
[13] = test system: MDA-MB-361; assay: Antitumor activity against human MDA-MB-361 cells xenografted in female nude mouse model assessed as induction in PARP cleavage at 50 mg/kg, po qd administered as 5 days on/2 days off regimen for 4 cycles by immunoblot analysis; type: functional, organism-based; conditions: time 28.0 day
[14] = target: Protein kinase C beta type (Homo sapiens) (UniProt P05771); assay: Inhibition of recombinant human full length GST-tagged PRKCB2 expressed in insect cells at 2 uM using Ser/Thr 07 as substrate measured after 1 hr by Z'-LYTE assay relative to control; conditions: Insect cell
[15] = target: Ribosomal protein S6 kinase beta-1 (Homo sapiens) (UniProt P23443); assay: Inhibition of recombinant human GST-tagged RPS6KB1 (1-421 residues) expressed in insect cells at 2 uM using Ser/Thr 07 as substrate measured after 1 hr by Z'-LYTE assay relative to control; conditions: Insect cell
[16] = test system: MDA-MB-361; assay: Inhibition of protein synthesis in human MDA-MB-361 cells at 3 micromol/L incubated for 3 hrs by [3H] methionine incorporation based scintillation counter analysis relative to control; type: functional; conditions: MDA-MB-361, 3 h, dose 3 µmol/L
[17] = target: Serine/threonine-protein kinase mTOR (Homo sapiens, UniProt P42345); conditions: HEK293, dose 0.1-1 nM, time 20.0 min
[18] = target: SRSF protein kinase 3 (Homo sapiens) (UniProt Q9UPE1); assay: Inhibition of recombinant human full length GST-tagged STK23 expressed in baculovirus expression system at 2 uM using Ser/Thr 18 as substrate measured after 1 hr by Z'-LYTE assay relative to control
[19] = test system: A549; assay: Induction of apoptosis in human A549 cells assessed as increase in G1 phase at 1 micromol/L incubated for 24 hrs by FACS analysis; type: functional, cell-based; conditions: dose 1.0 µmol/L
[20] = target: Megakaryocyte-associated tyrosine-protein kinase (Homo sapiens) (UniProt P42679); assay: Inhibition of recombinant human full length His-tagged MATK expressed in E. coli at 2 uM using Tyr 01 as substrate measured after 1 hr by Z'-LYTE assay relative to control
[21] = test system: A498; assay: Antiproliferative activity against human A498 cells assessed as cell growth inhibition at 10 micromol/L incubated for 3 days by MTS assay relative to control; type: functional; conditions: A498, 72 h, dose 10 µmol/L, time 3 day
[22] = test system: MDA-MB-361; assay: Induction of apoptosis in PI3K/mTOR hyperactive human MDA-MB-361 cells assessed as massive cell death at 0.001 to 100 micromol/L incubated for 48 hrs by FACS analysis; type: functional, cell-based; conditions: dose 0.001-100 µmol/L
[23] = target: Death-associated protein kinase 3 (Homo sapiens) (UniProt O43293); assay: Inhibition of recombinant human full-length GST-tagged DAPK3 expressed in insect cells at 2 uM using Ser/Thr 13 as substrate measured after 1 hr by Z'-LYTE assay relative to control; conditions: Insect cell
[24] = target: Ribosomal protein S6 kinase alpha-4 (Homo sapiens) (UniProt O75676); assay: Inhibition of recombinant human full length GST-tagged RPS6KA4 expressed in insect cells at 2 uM using Ser/Thr 01 as substrate measured after 1 hr by Z'-LYTE assay relative to control; conditions: Insect cell
[25] = target: Dual specificity tyrosine-phosphorylation-regulated kinase 1B (Homo sapiens) (UniProt Q9Y463); assay: Inhibition of recombinant human full-length GST-tagged DYRK1B expressed in insect cells at 2 uM using Ser/Thr 18 as substrate measured after 1 hr by Z'-LYTE assay relative to control; conditions: Insect cell
[26] = target: Serine/threonine-protein kinase PAK 3 (Homo sapiens) (UniProt O75914); assay: Inhibition of recombinant human full length His-tagged PAK3 expressed in insect cells at 2 uM using Ser/Thr 20 as substrate measured after 1 hr by Z'-LYTE assay relative to control; conditions: Insect cell

Dual specificity tyrosine-phosphorylation-regulated kinase 1B (Homo sapiens), sequence (Q9Y463 whole entry, looked up): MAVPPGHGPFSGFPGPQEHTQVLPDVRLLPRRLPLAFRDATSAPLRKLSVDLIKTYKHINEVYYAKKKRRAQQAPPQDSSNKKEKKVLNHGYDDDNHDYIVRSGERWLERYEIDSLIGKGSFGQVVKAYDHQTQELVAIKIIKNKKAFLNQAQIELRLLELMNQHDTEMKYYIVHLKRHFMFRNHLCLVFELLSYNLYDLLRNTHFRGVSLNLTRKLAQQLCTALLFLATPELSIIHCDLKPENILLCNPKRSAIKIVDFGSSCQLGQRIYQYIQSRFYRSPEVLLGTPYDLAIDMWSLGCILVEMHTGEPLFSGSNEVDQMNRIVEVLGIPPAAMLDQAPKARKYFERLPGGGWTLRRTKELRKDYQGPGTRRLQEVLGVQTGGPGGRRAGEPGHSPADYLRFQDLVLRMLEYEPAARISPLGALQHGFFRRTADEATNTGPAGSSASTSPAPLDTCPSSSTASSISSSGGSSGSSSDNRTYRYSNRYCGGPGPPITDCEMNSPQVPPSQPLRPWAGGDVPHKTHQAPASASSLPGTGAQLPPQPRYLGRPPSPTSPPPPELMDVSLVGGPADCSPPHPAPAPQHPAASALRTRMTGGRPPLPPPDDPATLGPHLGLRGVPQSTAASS
SRSF protein kinase 3 (Homo sapiens), sequence (Q9UPE1 whole entry): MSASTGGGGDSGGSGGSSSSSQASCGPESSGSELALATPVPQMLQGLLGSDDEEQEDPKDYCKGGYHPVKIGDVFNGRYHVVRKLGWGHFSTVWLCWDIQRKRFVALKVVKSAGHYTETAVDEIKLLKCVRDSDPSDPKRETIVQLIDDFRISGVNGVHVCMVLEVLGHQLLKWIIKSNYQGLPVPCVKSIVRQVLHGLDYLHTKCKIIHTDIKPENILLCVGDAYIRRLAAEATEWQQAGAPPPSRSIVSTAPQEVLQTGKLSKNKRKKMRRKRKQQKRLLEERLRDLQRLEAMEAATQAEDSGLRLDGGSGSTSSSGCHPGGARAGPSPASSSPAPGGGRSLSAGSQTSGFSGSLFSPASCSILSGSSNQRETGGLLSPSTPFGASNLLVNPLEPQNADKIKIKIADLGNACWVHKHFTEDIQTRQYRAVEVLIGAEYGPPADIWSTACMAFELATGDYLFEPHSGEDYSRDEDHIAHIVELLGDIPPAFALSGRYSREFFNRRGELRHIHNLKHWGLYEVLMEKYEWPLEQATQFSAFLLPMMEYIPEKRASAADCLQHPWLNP
Protein kinase C beta type (Homo sapiens), sequence (P05771 2-671 limits assumed): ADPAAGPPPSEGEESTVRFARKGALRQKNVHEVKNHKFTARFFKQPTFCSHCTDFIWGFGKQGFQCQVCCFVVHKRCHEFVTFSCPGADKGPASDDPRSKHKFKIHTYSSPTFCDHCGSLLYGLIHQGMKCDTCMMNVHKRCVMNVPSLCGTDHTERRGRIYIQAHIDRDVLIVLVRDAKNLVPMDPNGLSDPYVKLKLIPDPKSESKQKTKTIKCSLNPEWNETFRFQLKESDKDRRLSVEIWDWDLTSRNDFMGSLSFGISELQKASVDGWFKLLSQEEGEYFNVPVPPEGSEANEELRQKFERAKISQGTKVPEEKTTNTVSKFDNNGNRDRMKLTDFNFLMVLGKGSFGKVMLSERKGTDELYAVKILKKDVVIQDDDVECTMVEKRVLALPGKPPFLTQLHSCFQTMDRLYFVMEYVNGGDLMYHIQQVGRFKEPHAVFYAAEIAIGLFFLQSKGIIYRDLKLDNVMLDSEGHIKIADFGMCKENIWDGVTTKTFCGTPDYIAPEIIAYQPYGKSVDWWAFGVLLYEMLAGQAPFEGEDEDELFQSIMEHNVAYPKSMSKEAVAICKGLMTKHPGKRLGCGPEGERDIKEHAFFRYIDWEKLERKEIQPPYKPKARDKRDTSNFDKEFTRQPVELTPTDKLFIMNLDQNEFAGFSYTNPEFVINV
Serine/threonine-protein kinase BRSK1 (Homo sapiens), sequence (Q8TDC3 whole entry, the tested form may be a part): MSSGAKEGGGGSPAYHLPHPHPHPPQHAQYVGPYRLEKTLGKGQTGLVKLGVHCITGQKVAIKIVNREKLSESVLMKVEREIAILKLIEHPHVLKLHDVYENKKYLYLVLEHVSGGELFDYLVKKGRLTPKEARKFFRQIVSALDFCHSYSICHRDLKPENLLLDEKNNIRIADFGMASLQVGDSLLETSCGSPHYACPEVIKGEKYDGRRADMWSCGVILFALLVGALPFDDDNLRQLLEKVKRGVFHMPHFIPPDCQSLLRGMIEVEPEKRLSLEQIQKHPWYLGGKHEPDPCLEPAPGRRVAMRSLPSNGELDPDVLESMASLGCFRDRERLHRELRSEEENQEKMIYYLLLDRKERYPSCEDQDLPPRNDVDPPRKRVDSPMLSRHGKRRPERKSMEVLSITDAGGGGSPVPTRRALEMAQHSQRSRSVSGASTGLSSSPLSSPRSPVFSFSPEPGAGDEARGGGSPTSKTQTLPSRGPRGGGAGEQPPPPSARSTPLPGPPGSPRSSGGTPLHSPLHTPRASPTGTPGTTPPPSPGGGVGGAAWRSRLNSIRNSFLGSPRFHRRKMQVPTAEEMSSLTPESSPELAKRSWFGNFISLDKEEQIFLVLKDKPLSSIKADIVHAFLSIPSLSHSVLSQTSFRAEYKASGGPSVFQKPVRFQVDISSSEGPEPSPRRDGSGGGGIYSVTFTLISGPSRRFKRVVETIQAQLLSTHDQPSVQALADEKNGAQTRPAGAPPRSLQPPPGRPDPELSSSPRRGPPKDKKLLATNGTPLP
Tyrosine-protein kinase JAK2 (Homo sapiens), sequence (O60674 whole entry, the tested form may be a part, canonical isoform): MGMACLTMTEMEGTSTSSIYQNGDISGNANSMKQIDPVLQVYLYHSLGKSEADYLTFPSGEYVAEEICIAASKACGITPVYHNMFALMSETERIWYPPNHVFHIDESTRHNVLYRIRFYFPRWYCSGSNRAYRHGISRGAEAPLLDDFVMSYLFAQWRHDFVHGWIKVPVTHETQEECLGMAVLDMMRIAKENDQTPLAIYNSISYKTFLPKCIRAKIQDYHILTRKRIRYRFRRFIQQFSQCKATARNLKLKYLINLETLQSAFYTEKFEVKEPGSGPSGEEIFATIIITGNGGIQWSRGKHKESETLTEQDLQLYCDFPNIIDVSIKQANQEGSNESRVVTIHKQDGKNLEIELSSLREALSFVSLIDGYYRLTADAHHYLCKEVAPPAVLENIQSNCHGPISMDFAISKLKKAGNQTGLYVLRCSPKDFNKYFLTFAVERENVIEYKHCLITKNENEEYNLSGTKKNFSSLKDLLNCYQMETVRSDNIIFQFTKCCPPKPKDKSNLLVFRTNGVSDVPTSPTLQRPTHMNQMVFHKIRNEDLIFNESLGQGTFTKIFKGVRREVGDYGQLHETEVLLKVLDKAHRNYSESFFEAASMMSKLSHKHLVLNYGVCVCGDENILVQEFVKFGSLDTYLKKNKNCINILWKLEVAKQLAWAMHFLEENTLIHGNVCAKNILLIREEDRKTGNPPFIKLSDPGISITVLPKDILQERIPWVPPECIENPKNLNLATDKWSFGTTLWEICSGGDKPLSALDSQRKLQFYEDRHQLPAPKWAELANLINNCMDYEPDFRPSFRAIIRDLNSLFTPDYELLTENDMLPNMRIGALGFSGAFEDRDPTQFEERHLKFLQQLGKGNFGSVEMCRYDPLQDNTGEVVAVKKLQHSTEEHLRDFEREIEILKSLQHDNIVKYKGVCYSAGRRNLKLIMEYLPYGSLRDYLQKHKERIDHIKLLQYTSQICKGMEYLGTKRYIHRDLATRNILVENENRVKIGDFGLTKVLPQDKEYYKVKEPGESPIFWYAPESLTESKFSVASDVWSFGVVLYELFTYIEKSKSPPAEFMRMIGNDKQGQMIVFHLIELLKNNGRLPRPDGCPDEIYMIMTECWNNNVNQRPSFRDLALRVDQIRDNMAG
Ephrin type-A receptor 2 (Homo sapiens), sequence (P29317 whole entry, the tested form may be a part): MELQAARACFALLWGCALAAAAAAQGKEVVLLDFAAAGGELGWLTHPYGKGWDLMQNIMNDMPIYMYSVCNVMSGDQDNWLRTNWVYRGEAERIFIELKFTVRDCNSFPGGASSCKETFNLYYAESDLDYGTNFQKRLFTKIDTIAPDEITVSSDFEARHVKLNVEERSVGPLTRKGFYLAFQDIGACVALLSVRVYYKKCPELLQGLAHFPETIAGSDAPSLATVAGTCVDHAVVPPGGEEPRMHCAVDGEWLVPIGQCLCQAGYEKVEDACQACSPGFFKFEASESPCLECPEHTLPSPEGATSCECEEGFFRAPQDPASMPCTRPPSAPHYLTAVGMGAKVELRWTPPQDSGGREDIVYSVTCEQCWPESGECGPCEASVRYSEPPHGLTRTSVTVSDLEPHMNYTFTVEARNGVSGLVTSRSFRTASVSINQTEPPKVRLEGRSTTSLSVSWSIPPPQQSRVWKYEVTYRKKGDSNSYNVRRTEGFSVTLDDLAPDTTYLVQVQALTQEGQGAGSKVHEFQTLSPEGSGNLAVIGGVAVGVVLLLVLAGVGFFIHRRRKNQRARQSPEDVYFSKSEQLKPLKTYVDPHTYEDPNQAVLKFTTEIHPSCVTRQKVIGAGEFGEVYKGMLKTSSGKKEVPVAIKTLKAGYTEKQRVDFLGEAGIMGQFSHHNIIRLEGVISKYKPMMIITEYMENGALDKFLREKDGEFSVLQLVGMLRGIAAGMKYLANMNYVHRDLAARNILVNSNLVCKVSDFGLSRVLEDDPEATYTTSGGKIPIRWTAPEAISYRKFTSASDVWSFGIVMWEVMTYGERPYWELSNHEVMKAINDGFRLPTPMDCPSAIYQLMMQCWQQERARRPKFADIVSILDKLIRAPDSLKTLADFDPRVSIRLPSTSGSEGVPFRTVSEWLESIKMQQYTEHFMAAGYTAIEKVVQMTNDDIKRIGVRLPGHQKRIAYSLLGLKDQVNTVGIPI

CNC(=O)Nc1ccc(-c2nc(N3CC4CCC(C3)O4)c3cnn(C4CCC5(CC4)OCCO5)c3n2)cc1
inhibition [1]: 2%
inhibition [2]: 1%
inhibition [3]: 4%
inhibition [4]: 1%
Activity [5]: 100%
inhibition [6]: 10%
Activity [7]: 6.2%
Activity [8]: Active
inhibition [9]: 2%
inhibition [10]: 2%
inhibition [11]: 8%
inhibition [12]: 0%
Activity [13]: Active
inhibition [14]: 9%
inhibition [15]: 2%
inhibition at 3 µM [16]: ~50%
inhibition [17]: Active
inhibition [18]: 6%
Activity [19]: Active
inhibition [20]: 2%
inhibition at 10 µM [21]: 100%
Activity [22]: Active
inhibition [23]: 2%
inhibition [24]: 1%
inhibition [25]: 2%
inhibition [26]: 1%
